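Interpolation was linear, between the two tested concentrations surrounding the appropriate level; five concentrations were tested over 48 hours in 96-well plates. GI50 = concentration required for 50% inhibition of growth.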 Calls of active or inactive are those of the source. No stated cut-off is given here; in the data, active = GI50 up to about 1.1 µM and inactive = higher.
Experiments:
Test in all cases: inhibition of tumour cell growth, NCI panel, 48 h
[1] = test system: CAKI-1
[2] = test system: CCRF-CEM
[3] = test system: HCC 2998
[4] = test system: HL-60
[5] = test system: HOP-92
[6] = test system: MCF7
[7] = test system: MDA-MB-231
[8] = test system: MDA-MB-435
[9] = test system: NCI-H460
[10] = test system: NCI-H522
[11] = test system: RPMI-8226
[12] = test system: SF-295
[13] = test system: SF-539
[14] = test system: SK-MEL-28
[15] = test system: SK-MEL-2
[16] = test system: SR
[17] = test system: UACC-62
[18] = test system: K562
[19] = test system: RXF 393

With N#Cc1ccc(OCc2ccc3nc(-c4ccccc4)c(Cl)nc3c2)cc1 the GI50 [1] was > 100 µM (inactive), the GI50 [2] was > 100 µM (inactive) and the GI50 [3] was > 100 µM (inactive). For the same molecule, the GI50 [4] was > 100 µM (inactive), the GI50 [5] was > 100 µM (inactive) and the GI50 [6] was > 100 µM (inactive). The GI50 [7] was > 100 µM (inactive), the GI50 [8] was > 100 µM (inactive) and the GI50 [9] was > 100 µM (inactive). The GI50 [10] was > 100 µM (inactive), the GI50 [11] was > 100 µM (inactive) and the GI50 [12] was > 100 µM (inactive). The GI50 [13] was > 100 µM (inactive), the GI50 [14] was > 100 µM (inactive) and the GI50 [15] was > 100 µM (inactive). For the same molecule, the GI50 [16] was > 100 µM (inactive) and the GI50 [17] was > 100 µM (inactive).

In the case of CC1=C(C(=O)OCc2ccncc2)C(C2=C(C)SCCS2)C(C(=O)OCc2ccncc2)=C(C)N1, the GI50 [1] is reported as 26.3 µM (inactive), the GI50 [2] is reported as 17.7 µM (inactive) and the GI50 [3] is reported as > 10 µM (inactive). The GI50 [4] was 25.4 µM (inactive), the GI50 [5] was 12.3 µM (inactive) and the GI50 [18] was 20 µM (inactive). For the same molecule, the GI50 [6] was 20.8 µM (inactive), the GI50 [7] was 26.9 µM (inactive) and the GI50 [8] was 17.8 µM (inactive). For the same molecule, the GI50 [9] was 23.4 µM (inactive), the GI50 [10] was 22.8 µM (inactive) and the GI50 [19] was 12 µM (inactive). The GI50 [12] was 18.2 µM (inactive), the GI50 [13] was 16.4 µM (inactive) and the GI50 [14] was 16.8 µM (inactive). The GI50 [16] was 33.6 µM (inactive) and the GI50 [17] was 16.3 µM (inactive).

With CCOP(=O)(OCC)/C(C#N)=C/c1c(C)[nH]c2ccccc12 the GI50 [1] was > 100 µM (inactive), the GI50 [2] was > 100 µM (inactive) and the GI50 [3] was > 100 µM (inactive). For the same molecule, the GI50 [4] was > 100 µM (inactive), the GI50 [5] was > 100 µM (inactive) and the GI50 [18] was > 100 µM (inactive). The GI50 [6] was > 100 µM (inactive), the GI50 [7] was > 100 µM (inactive) and the GI50 [8] was > 100 µM (inactive). For the same molecule, the GI50 [9] was > 100 µM (inactive), the GI50 [10] was > 100 µM (inactive) and the GI50 [11] was > 100 µM (inactive). For the same molecule, the GI50 [19] was > 100 µM (inactive), the GI50 [12] was > 100 µM (inactive) and the GI50 [13] was > 100 µM (inactive). The GI50 [14] was > 100 µM (inactive), the GI50 [16] was > 100 µM (inactive) and the GI50 [17] was > 100 µM (inactive).

In the case of C#CC1(OC(C)=O)CCC2C3CC=C4C=C(OC(C)=O)CCC4(C)C3CCC21C (stereo not drawn), the GI50 [1] is reported as 36.5 µM (inactive), the GI50 [2] is reported as 12.6 µM (inactive) and the GI50 [3] is reported as 16 µM (inactive). The GI50 [4] was 28.6 µM (inactive), the GI50 [5] was 16.1 µM (inactive) and the GI50 [18] was 23.9 µM (inactive). For the same molecule, the GI50 [6] was 24.5 µM (inactive), the GI50 [7] was 24.2 µM (inactive) and the GI50 [8] was 20.1 µM (inactive). The GI50 [9] was 27 µM (inactive), the GI50 [10] was 17.4 µM (inactive) and the GI50 [11] was < 0.01 µM (active). The GI50 [12] was 25.2 µM (inactive), the GI50 [13] was 21.3 µM (inactive) and the GI50 [14] was 25.9 µM (inactive). The GI50 [15] was 19.7 µM (inactive), the GI50 [16] was 16.3 µM (inactive) and the GI50 [17] was 18.3 µM (inactive).

In the case of COc1ccc2c(c1)CCN1CCc3ccccc3CC21 (stereo not drawn), the GI50 [1] is reported as 47.2 µM (inactive), the GI50 [2] is reported as 33.3 µM (inactive) and the GI50 [3] is reported as 21.2 µM (inactive). For the same molecule, the GI50 [4] was 16.8 µM (inactive), the GI50 [5] was 20.5 µM (inactive) and the GI50 [18] was 29 µM (inactive). The GI50 [6] was 60.8 µM (inactive), the GI50 [7] was 52.2 µM (inactive) and the GI50 [8] was 26.8 µM (inactive). For the same molecule, the GI50 [9] was 30.8 µM (inactive), the GI50 [10] was 67.3 µM (inactive) and the GI50 [11] was 19.1 µM (inactive). The GI50 [12] was 19.2 µM (inactive), the GI50 [13] was 36.6 µM (inactive) and the GI50 [14] was 27.6 µM (inactive). The GI50 [15] was 57.3 µM (inactive), the GI50 [16] was 35.2 µM (inactive) and the GI50 [17] was 32.3 µM (inactive).

With O=C(Nc1nc(C23CC4CC(CC(C4)C2)C3)cs1)c1cc2c(ccc3ccccc32)oc1=O the GI50 [1] was > 100 µM (inactive), the GI50 [2] was > 100 µM (inactive) and the GI50 [3] was > 100 µM (inactive). For the same molecule, the GI50 [4] was > 100 µM (inactive), the GI50 [5] was > 100 µM (inactive) and the GI50 [18] was > 100 µM (inactive). The GI50 [6] was > 100 µM (inactive), the GI50 [7] was > 100 µM (inactive) and the GI50 [8] was > 100 µM (inactive). For the same molecule, the GI50 [9] was > 100 µM (inactive), the GI50 [10] was > 100 µM (inactive) and the GI50 [11] was > 100 µM (inactive). For the same molecule, the GI50 [12] was > 100 µM (inactive), the GI50 [13] was > 100 µM (inactive) and the GI50 [14] was > 100 µM (inactive). For the same molecule, the GI50 [16] was > 100 µM (inactive).

COc1ccc(S(=O)(=O)N2C(=O)CCC2C(=O)NN)cc1 (stereo not drawn) was tested, and the GI50 [1] was > 100 µM (inactive), the GI50 [2] was > 100 µM (inactive) and the GI50 [3] was > 100 µM (inactive). For the same molecule, the GI50 [4] was > 100 µM (inactive), the GI50 [5] was > 100 µM (inactive) and the GI50 [18] was > 100 µM (inactive). The GI50 [6] was > 100 µM (inactive), the GI50 [7] was > 100 µM (inactive) and the GI50 [8] was > 100 µM (inactive). For the same molecule, the GI50 [9] was > 100 µM (inactive), the GI50 [10] was 25.5 µM (inactive) and the GI50 [11] was > 100 µM (inactive). The GI50 [12] was > 100 µM (inactive), the GI50 [13] was > 100 µM (inactive) and the GI50 [14] was > 100 µM (inactive). The GI50 [15] was > 100 µM (inactive), the GI50 [16] was > 100 µM (inactive) and the GI50 [17] was > 100 µM (inactive).

For CCn1ncc(Oc2c(Cl)cc(N)cc2Cl)c(Cl)c1=O, the GI50 [1] was 35.1 µM (inactive), the GI50 [2] was 83 µM (inactive) and the GI50 [3] was 34.7 µM (inactive). For the same molecule, the GI50 [4] was 34.2 µM (inactive), the GI50 [5] was 73.6 µM (inactive) and the GI50 [18] was 35.1 µM (inactive). For the same molecule, the GI50 [6] was 38.7 µM (inactive), the GI50 [7] was 54.6 µM (inactive) and the GI50 [8] was 29.1 µM (inactive). The GI50 [9] was 32.2 µM (inactive), the GI50 [11] was 31.6 µM (inactive) and the GI50 [19] was 29 µM (inactive). The GI50 [12] was 29 µM (inactive), the GI50 [13] was 31.6 µM (inactive) and the GI50 [14] was 51.3 µM (inactive). The GI50 [15] was 34.6 µM (inactive), the GI50 [16] was 21.5 µM (inactive) and the GI50 [17] was 39.5 µM (inactive).

For O=C1C(/N=N/c2ccc(-c3nc4ccccc4o3)cc2)NC(=S)N1c1ccccc1 (stereo not drawn), the GI50 [1] was 90.8 µM (inactive), the GI50 [2] was 0.0479 µM (active) and the GI50 [3] was > 100 µM (inactive). The GI50 [4] was 0.13 µM (active), the GI50 [5] was 59.6 µM (inactive) and the GI50 [18] was 67.8 µM (inactive). For the same molecule, the GI50 [6] was 33.2 µM (inactive), the GI50 [7] was > 100 µM (inactive) and the GI50 [8] was 60.7 µM (inactive). The GI50 [9] was 70.3 µM (inactive), the GI50 [10] was 60.4 µM (inactive) and the GI50 [19] was 83.8 µM (inactive). The GI50 [12] was > 100 µM (inactive), the GI50 [13] was > 100 µM (inactive) and the GI50 [14] was > 100 µM (inactive). For the same molecule, the GI50 [15] was > 100 µM (inactive), the GI50 [16] was 28.5 µM (inactive) and the GI50 [17] was 80.2 µM (inactive).

CC(=O)c1cccc(NC(=O)C(=O)C(c2cnc3ccc([N+](=O)[O-])cc3n2)[N+](=O)[O-])c1 (stereo not drawn) was tested, and the GI50 [1] was > 100 µM (inactive), the GI50 [2] was 36.4 µM (inactive) and the GI50 [3] was 69.8 µM (inactive). The GI50 [4] was 37.9 µM (inactive), the GI50 [5] was > 100 µM (inactive) and the GI50 [18] was > 100 µM (inactive). The GI50 [6] was > 100 µM (inactive), the GI50 [7] was > 100 µM (inactive) and the GI50 [8] was > 100 µM (inactive). For the same molecule, the GI50 [9] was > 100 µM (inactive), the GI50 [11] was > 100 µM (inactive) and the GI50 [19] was 96.6 µM (inactive). For the same molecule, the GI50 [12] was 66.7 µM (inactive), the GI50 [13] was > 100 µM (inactive) and the GI50 [14] was > 100 µM (inactive). For the same molecule, the GI50 [15] was > 100 µM (inactive), the GI50 [16] was 52.1 µM (inactive) and the GI50 [17] was > 100 µM (inactive).

CCN(C(C)=O)c1cnc(/C=N/NC(N)=S)c2ccccc12 was tested, and the GI50 [1] was 3.3 µM (inactive), the GI50 [2] was 2.54 µM (inactive) and the GI50 [3] was 11 µM (inactive). The GI50 [4] was 1.77 µM (inactive), the GI50 [5] was > 40.4 µM (inactive) and the GI50 [18] was 4 µM (inactive). The GI50 [6] was 2.81 µM (inactive), the GI50 [7] was 18.6 µM (inactive) and the GI50 [8] was 4.42 µM (inactive). The GI50 [9] was 1.5 µM (inactive), the GI50 [10] was 2.95 µM (inactive) and the GI50 [11] was 3.08 µM (inactive). The GI50 [19] was 17.9 µM (inactive), the GI50 [12] was 3.14 µM (inactive) and the GI50 [13] was 2.93 µM (inactive). The GI50 [16] was 0.631 µM (active) and the GI50 [17] was 3.3 µM (inactive).

Source: ChEMBL document CHEMBL1201862, “PubChem BioAssay data set” (2004)
